The text below walks through data of patent US20150209281A1, “LIPOSOMAL COMPOSITIONS OF EPOXYKETONE-BASED PROTEASOME INHIBITORS” (ONYX THERAPEUTICS, INC., priority 2012, published 2015).

As usually defined, the solubility is the concentration that dissolves in the medium under given conditions.

In brackets after ≈: the same amount, converted by molar mass. Where two headings read alike, the source gives them in different places.

The nature of the data set: Aqueous solubility of carfilzomib. The data set is classed as physicochemical.

For the compound `CC(C)C[C@H](NC(=O)[C@H](CCc1ccccc1)NC(=O)CN1CCOCC1)C(=O)N[C@@H](Cc1ccccc1)C(=O)N[C@@H](CC(C)C)C(=O)[C@@]1(C)CO1` [carfilzomib], the solubility (30 °C, simulated gastric fluid, thermodynamic from solid, 0.1M HCl aqueous solution, ~pH 1, read-out: Approximate carfilzomib solubility at pH 1) was approximately 1800 µg/mL (≈ 2500 µM) and the solubility (aqueous medium, read-out: aqueous solubility) is less than 1 µg/mL.
